{"source": "patent US9895381B2", "about": "“Vitamin D receptor agonists to treat diseases involving CXCL12 activity” (Salk Institute for Biological Studies, priority 2013, dated 2018)", "key": {"primary human CAPSCs": {"test_system": "primary human CAPSCs", "assay": "Lipid droplet accumulation assay (BODIPY 493/503)", "format": "cell-based", "conditions": "100 nM Cal, 48 h; samples responding / samples tested", "experimental": "Primary human CAPSCs were seeded onto glass coverslips. After overnight attachment, cells were treated with vehicle (DMSO) or 100 nM calcipotriol for 48 h. Media was aspirated, cells were washed twice with PBS (Gibco) and fixed in 10% buffered formalin at room temperature for 15 minutes. Fixative was removed and cells were washed three times with PBS. Cells were then stained with 1 μg/ml 4,4-Difluoro-1,3,5,7,8-Pentamethyl-4-Bora-3a,4a-Diaza-s-Indacene (BODIPY 493/503, Molecular Probes) for 1 h at room temperature, protected from light. Dye was removed and cells were washed three times with PBS, then mounted using Vectastain mounting medium (Vector Labs). Fluorescence was visualized through the GFP filter on a Leica DM5000B fluorescent microscope and quantification performed using ImageJ."}, "hPSC cell line": {"test_system": "hPSC cell line", "assay": "Chromatin immunoprecipitation for VDR and SMAD3", "format": "cell-based, human", "conditions": "100 nM Cal 16 h pretreatment, 1 ng/ml TGFβ 4 h", "experimental": "The hPSC cell line was utilized for chromatin immunoprecipitation, which was described previously (Barish et al., 2010). Briefly, cells were fixed in 1% formaldehyde, and nuclei were isolated and lysed in buffer containing 1% SDS, 10 mM EDTA, 50 mM Tris-HCl pH 8.0, and protease inhibitors, and sheared with a Diagenode Bioruptor to chromatin fragment sizes of 200-1000 base pairs. Chromatin was immunoprecipitated with antibodies to VDR (C-20, Santa Cruz Biotechnology), SMAD3 (Abcam), or rabbit IgG (Santa Cruz Biotechnology)."}, "primary mouse PSCs": {"test_system": "primary mouse PSCs", "assay": "RNA-Seq transcriptome of PSCs with or without VDR ligand", "format": "cell-based", "experimental": "Pancreatic stellate cells (PSCs) were isolated from pancreata of wild-type C57BL6/J mice at 8 weeks of age by a modification of the method described by Apte et al. (Apte et al., 1998). Briefly, pancreatic tissue was minced with scissors and digested with 0.02% Pronase (Roche, Indianapolis, Ind.), 0.05% Collagenase P (Roche), and 0.1% DNase (Roche) in Gey's balanced salt solution (GBSS; Sigma Aldrich, St. Louis, Mo.) at 37° C. for […] Digested tissue was then filtered through a 100 μm nylon mesh. Cells were washed once with GBSS, pelleted, and resuspended in 9.5 ml GBSS containing 0.3% bovine serum albumin (BSA) and 8 ml 28.7% Nycodenz solution (Sigma Aldrich; approximate density of the solution is 1.070). The cell suspension was layered beneath GBSS containing 0.3% BSA, and centrifuged at 1400×g for 20 min at 4° C. The cells of interest were harvested from the interface of the Nycodenz solution at the bottom and the aqueous solution at the top. Isolated PSCs were washed with GBSS and resuspended in DMEM (Invitrogen) containing 10% characterized FBS (HyClone) and antibiotics (penicillin 100 U/ml and streptomycin 100 μg/ml, Invitrogen). Cells were maintained at 37° C. in a humidified atmosphere of 7% CO2. After reaching 80% confluence, cells were briefly trypsinized (0.25% Trypsin-EDTA, Invitrogen) and subcultured. Total RNA from human and mouse PSCs was isolated using Trizol (Invitrogen) and the RNeasy mini kit with on-column DNase digestion (Qiagen) according to the manufacturers' instructions. Biological quadruplicates were used for human samples, and biological triplicates used for mouse samples. For transcriptome studies with VDR activation, PSCs were treated with vehicle (DMSO) or 100 nM calcipotriol (Tocris) and harvested at the indicated time points. Sequencing libraries were prepared from 100-500 ng total RNA using the TruSeq RNA Sample Preparation Kit v2 (Illumina) according to the manufacturer's protocol. The Gene Expression Omnibus accession number for the RNA-Seq data is GSE43770. Briefly, mRNA was purified, fragmented, and used for first-, then second-strand cDNA synthesis followed by adenylation of 3′ ends. Samples were ligated to unique adapters and subject to PCR amplification. Libraries were then validated using the 2100 BioAnalyzer (Agilent), normalized, and pooled for sequencing. Human normal and cancer-associated PSCs were sequenced on the Illumina GAII platform with a 41 bp read length, while mouse PSCs and human MiaPaCa-2 cells were sequenced on the Illumina HiSeq 2000 using bar-coded multiplexing and a 51 bp read length. Read alignment and junction mapping was accomplished using TopHat2 v2.0.4 using a 25 bp 5′ segment seed for initial mapping followed by differential gene expression analysis using Cuffdiff v2.0.2 to map reads to the reference genome annotation, NCBI mouse build 37.2 and human build 37.2 (Trapnell et al., 2012). Median sequencing read yield per replicate sample was 49.2M for MiaPaCa-2 cells, 25.4M for mouse PSCs and 53.8M for human PSCs. Data were expressed as fragments per kilobase of exon per million fragments mapped (FPKM). Volcano plots were generated from Cuffdiff output using CummeRbund v2.0.0 (Trapnell et al., 2012)."}, "MiaPaCa-2 cells": {"test_system": "MiaPaCa-2 cells", "assay": "CAPSC conditioned media experiments", "format": "cell-based, human", "conditions": "CM from Cal-treated CAPSCs (100 nM, 48 h), 48 h on MiaPaCa-2", "experimental": "Primary […] were grown to 100% confluency. Fresh media was added to the cultures, and at this time, […] were treated with 100 nM calcipotriol. After 48 h, conditioned media was harvested, sterile-filtered through 0.45 μm pores, and added to pancreatic cancer cells (PCCs) at 50-60% confluency. PCCs were treated directly with 100 nM calcipotriol at the onset of conditioned media incubation. After 48 h, PCCs were harvested and RNA and protein isolated for analysis."}}, "data": [{"smiles": "C=C1/C(=C\\C=C2/CCC[C@]3(C)[C@@H]([C@H](C)/C=C/[C@@H](O)C4CC4)CC[C@@H]23)C[C@@H](O)C[C@@H]1O", "note": "[Cal, 1α,24-(OH)2-24-cyclopropyl-D3]", "values": [{"measurement": "lipid droplet formation, primary patient samples", "setting": "primary human CAPSCs", "result": "19/27"}, {"measurement": "SMAD3 binding in promoter regions of fibrogenic genes (HAS2, COL1A1)", "setting": "hPSC cell line", "result": "decreasing SMAD3 binding"}, {"measurement": "VDR binding in promoter regions of fibrogenic genes (HAS2, COL1A1)", "setting": "hPSC cell line", "result": "increased VDR binding"}, {"measurement": "effect on activation and cancer signatures in PSCs", "setting": "primary mouse PSCs", "result": "inhibition of the activation and cancer signatures"}, {"measurement": "genes with significantly decreased expression", "setting": "primary mouse PSCs; activated PSCs", "result": 1616, "unit": "genes"}, {"measurement": "genes with significantly increased expression", "setting": "primary mouse PSCs; activated PSCs", "result": 664, "unit": "genes"}, {"measurement": "genes with significantly decreased expression", "setting": "primary mouse PSCs; pre-activated PSCs", "result": 431, "unit": "genes"}, {"measurement": "genes with significantly increased expression", "setting": "primary mouse PSCs; pre-activated PSCs", "result": 307, "unit": "genes"}, {"measurement": "gene expression changes induced by CAPSC conditioned media", "setting": "MiaPaCa-2 cells", "result": "largely abrogated"}]}]}
